A short description of data set [1]: Assay 2: brain blood barrier penetration assay (short oral absorption model plus in vitro blood and brain binding). The class given is in vivo. To be noted: rat, male Han Wistar rats, oral 2 mg/kg, Kp,uu=AUC (brain)/AUC (blood)×(fu,brain/fu.blood). As for the experimental part: Assay 2: Brain Blood Barrier Penetration Assay
It is believed that Kp,uu, the relationship between concentrations of unbound drug in brain and in blood, is the key to prediction of CNS action and should be the main parameter measured and optimized for in drug discovery (Di L et al., Journal of Medicinal Chemistry [2013], 56: 2-12).
In vitro blood and brain binding assay was carried out on a HT-Dialysis plate (Gales Ferry, Conn.) with semi-permeable membrane. Diluted blood (1:1 with DPBS pH7.4) and brain homogenate (1:3 with DPBS pH7.4) were spiked with 5 μM test compound (in triplicate) and dialyzed against equal volume of 150 μL 100 mM PBS buffer (pH7.4) at 37° C. for 4 hours in a slowly rotated plate. At the end of incubation, a 50 μL aliquot from the receiver side and a 5 μL from the donor chamber were taken. The 5 μL sample was further diluted with 45 μL of blank blood or brain homogenate. Paired samples were matrix-matched with either buffer or blank blood/brain homogenate and mixed for 2 min, and then precipitated with 150 μL cold acetonitrile with 100 ng/mL tolbutamide as internal standard. After centrifuging at 4000 rpm for 20 min, supernatant was diluted with 0.1% formic acid aqueous solution and analyzed for LC/MS/MS (API 4000, Applied Biosystems, Foster City). […]. D is dilution factor.
A Short oral absorption (SOA) model is an in-vivo screening model to identify brain penetration of a compound. […]
Standards were prepared by spiking blank blood, brain homogenate and artificial CSF covering 0.2 to 500 ng/mL. […] After 2 min vortex and 5 min centrifugation at 14,000 rpm, supernatant was analyzed by LC/MS/MS (API 4000, Applied Biosystems, Foster City). […] For brain and CSF samples, one standard curve was analyzed along with test samples.
Total brain levels, expressed as brain/blood ratio (Kp) were measured by AUCbrain/AUCblood in rodents after oral administration. Free fraction of test compound in biological matrix was determined by in vitro blood and brain binding assay. Kp,uu was calculated by the following equation: Kp,uu=AUC (brain)/AUC (blood)×(fu,brain/fu.blood).

In another data set the test system is endogenous p-EGFR. Nature of the data set: Assay 1: cellular phosphorylation assay, overall statement. The class given is cell-based, human. The following applies: Assay 1, statement on the table. The text has this: Assay 1: Cellular Phosphorylation Assay
The human lung cell line NCI-H3255 (L858R) was obtained from the American Type Culture Collection. The NCI-H3255 cells were maintained in BEBM media (Lonza; CC-3171), containing 10% fetal bovine serum (FBS) (Gibco; 10099-141), supplemented with BEGM kit (Lonza; CC-4175). The human lung cell line PC-9 (Exon 19 deletion EGFR) was obtained from the American Type Culture Collection. PC-9 cells were maintained in RPMI 1640 (Gibco; 22400-089), containing 10% fetal bovine serum. The human lung cell line NCI-H838 (EGFR wild type) was obtained from the American Type Culture Collection. NCI-H838 cells were maintained in RPMI 1640 (Gibco; 22400-089), containing 10% fetal bovine serum.
All cells were grown in a humidified incubator at 37° C. with 5% CO2. Assays to measure cellular phosphorylation of endogenous p-EGFR in cell lysates were carried out according to the protocol described in the PathScan® Phospho-EGF Receptor (Tyr1068) Sandwich ELISA Kit (Cell Signalling kit catalogue number #7240).
100 μL of cells were seeded (32000 cells/well) in RPMI 1640+1% fetal bovine serum in Corning Costar, 96 well cell culture plates and incubated at 37° C. with 5% CO2 overnight. Cells were acoustically dosed using a […], with compounds serially diluted in 100% DMSO. Cell plates were incubated for a further 4 h after the compounds were added, (for NCI-H838: rhEGF (R&D catalogue number#236-EG) was added to cell plate with final concentration 100 ng/ml rhEGF to stimulate 5 minutes), then following aspiration of medium, 110 μL IP lysis buffer (IP lysis buffer: add 1:100 phosphatase inhibitor cocktail 2&3 (Sigma catalogue number P5726&P0044), 1:100 protease inhibitor cocktail (Sigma catalogue number P8340) to Pierce IP lysis buffer (Thermo catalogue number #87788)) was added to each well. The plates were put at 4° C. with rotation 300 rpm for 0.5-1 hour. […] 100 μl stop solution (Cell Signalling kit catalogue number#7240) was added to the plates and absorbance read at 450 nm within 30 minutes on SpectraMax M5e plate reader. […]

This note sets out measurements from patent US9718806B2, “Quinazoline inhibitors of activating mutant forms of epidermal growth factor receptor” (AstraZeneca AB, priority 2013, dated 2017).

SMILES strings stand for the structures. Structures can show the parent of a compound that is named as a salt.

In the case of `COc1cc2ncnc(Nc3cccc(Cl)c3F)c2cc1OC(=O)N1CCN(C)C[C@H]1C` [Example 1, 4-[(3-Chloro-2-fluorophenyl)amino]-7-methoxyquinazolin-6-yl (2R)-2,4-dimethylpiperazine-1-carboxylate], the Kp uu in data set [1] (in vivo) was determined as 1.3. Besides, in the data set with endogenous p-EGFR, the “potency compared with gefitinib and erlotinib” value is “comparable potency to gefitinib and erlotinib”.

In the case of `COc1cc2ncnc(Nc3cccc(Cl)c3F)c2cc1OC(=O)N1CCN(C)C[C@@H]1C` [Example 3, 4-[(3-Chloro-2-fluorophenyl)amino]-7-methoxyquinazolin-6-yl (2S)-2,4-dimethylpiperazine-1-carboxylate], the Kp uu in data set [1] (brain / blood (unbound)) was found to be 1.6. The “potency compared with gefitinib and erlotinib” value in the data set with endogenous p-EGFR was “comparable potency to gefitinib and erlotinib”.

In the case of `CNC(=O)CN1CCC(Oc2cc3c(Nc4cccc(Cl)c4F)ncnc3cc2OC)CC1` [sapitinib, reference compound], in data set [1] (brain / blood (unbound)), the Kp uu came to 0.12.

Take `COc1cc2ncnc(Nc3cccc(Cl)c3F)c2cc1OC(=O)N1CCN(C)C[C@H]1C` [Example 2, 4-[(3-Chloro-2-fluorophenyl)amino]-7-methoxyquinazolin-6-yl (2R)-2,4-dimethylpiperazine-1-carboxylate hydrochloride]: the “potency compared with gefitinib and erlotinib” value with endogenous p-EGFR is “comparable potency to gefitinib and erlotinib”.
